Type in all cases: cell-based, human
Experiment [1] concerns pancreatic cancer cell line Mia Paca-2. The experiment is described as follows: Cell viability (Cell Counting Kit-8) of pancreatic cancer cell line Mia Paca-2 after drug treatment. The conditions noted are these: SGLT-2 inhibitor with gossypol and/or phenformin, FIGS. 2b, 2c.
Procedure: (§1) Each of the cell lines was cultured according to the ATCC guidelines in 10% FBS-containing RPMI 1640, DMEM, or Eagle's MEM medium supplemented with 1% penicillin-streptomycin (Gibco) in a 5% CO2 incubator (HERAcell 150i, Thermo Scientific, Waltham, MA, USA) at 37° C. and was used in the experiment.
At the same time, the number of cells in each sample was measured with a cell viability assay kit (Cell Counting Kit-8), and the measured value was calculated as a percentage of the number of cells in the negative control group to compare the number of cells between the samples. All experiments were repeated several times and the measured values were averaged. […] The numerical values on the drawings according to all examples below are expressed as mean±standard error of the mean (SEM), and * indicates statistical significance (**P<0.01, ***P<0.001).
According to the methods of Example 1 and Example 2, the pancreatic cancer cell line Mia Paca-2 cells were cultured, and then each drug was administered to the cells, followed by analysis of the cell viability.
The next experiment relates to U87 tumor spheroids. The experiment is described as follows: Tumor spheroid size/diameter of U87 cell line after drug administration. The conditions noted are these: for size of the tumor spheroid cells (cell photographs): 14 days, gossypol 5 μM, phenformin 10 μM; for size of the cells (cell photographs): SGLT-2 inhibitor alone or in combination with gossypol and phenformin, FIG. 9. How it is done: The U87 cell line cells prepared according to the method of Example 1 were seeded into a 96-well plate at a density of 1.0×10^2 cells/well in DMEM media containing 2% Matrigel (Corning, NY, USA), and stabilized in a 5% CO2 incubator at 37° C. for 3 days to form tumor spheroids. After stabilization, the cells were cultured in a 5% CO2 incubator at 37° C. for 14 days. […] Referring to FIGS. 6b, 7b and 8b, the rate of change in diameter of the spheroid in the graph was calculated as a percentage based on the change in the average diameter after administration of each drug compared to the average diameter of tumor spheroid cells seeded in the 96-well plate.

Experiment [2] relates to brain cancer cell line U87. As to the kind of experiment: Cell viability (Cell Counting Kit-8) of brain cancer cell line U87 after drug treatment. The conditions noted are these: SGLT-2 inhibitor with gossypol and phenformin, FIGS. 3b, 3c.
Procedure: The present inventors obtained the human lung cancer cell line A549, the pancreatic cancer cell line Mia Paca-2, the brain cancer cell line U87, and the colon cancer cell line SW480 from the American Type Culture Collection (ATCC). Each of the cell lines was cultured according to the ATCC guidelines in 10% FBS-containing RPMI 1640, DMEM, or Eagle's MEM medium supplemented with 1% penicillin-streptomycin (Gibco) in a 5% CO2 incubator (HERAcell 150i, Thermo Scientific, Waltham, MA, USA) at 37° C. and was used in the experiment.
At the same time, the number of cells in each sample was measured with a cell viability assay kit (Cell Counting Kit-8), and the measured value was calculated as a percentage of the number of cells in the negative control group to compare the number of cells between the samples. All experiments were repeated several times and the measured values were averaged.
According to the methods of Example 1 and Example 2, the brain cancer cell line U87 cells were cultured, and then each drug was administered to the cells, followed by analysis of the cell viability.
The subject of experiment [3] is lung cancer cell line A549. As to the kind of experiment: Cell viability (Cell Counting Kit-8) of lung cancer cell line A549 after drug treatment. The settings on record: SGLT-2 inhibitor 50 μM, gossypol 5 μM, phenformin 10 μM, FIG. 1c.
Procedure: as §1
The lung cancer cell line A549 cells prepared by the method of Example 1 were seeded into a 96-well plate at a concentration of 1×10^4 cells/well and cultured overnight at 37° C. in a 5% CO2 environment. […]
Thereafter, 100 μL of each cell culture and 10 μL of incubation buffer (CCK) were mixed together, placed in a 96-well plate, and incubated at room temperature for 1 hour, and then the absorbance was measured at a wavelength of 450 nm using a spectrophotometer (Synergy HTX Multi-Reader, BioTek, Winooski, VT, USA). At the same time, the number of cells in each sample was measured with a cell viability assay kit (Cell Counting Kit-8), and the measured value was calculated as a percentage of the number of cells in the negative control group to compare the number of cells between the samples. All experiments were repeated several times and the measured values were averaged.
Experiment [4] deals with lung cancer line A549 cells. As to the kind of experiment: Oxygen consumption rate (OCR) during mitochondrial respiration, Seahorse XF24, A549. The conditions noted are these: SGLT-2 inhibitor 50 μM, gossypol 5 μM, phenformin 10 μM, alone or in combination, overnight, FIG. 10. On the procedure:
In order to measure mitochondrial respiration, which is the main energy metabolic process of cells, the present inventors analyzed cellular oxygen consumption rate (OCR) by measuring intracellular oxygen concentration. The oxygen consumption rate that occurs during energy metabolism can be a measure of how actively cancer cell division occurs during the metabolic process of cancer cells. 1 mL of XF Calibrant buffer (Agilent Technologies) was added to a sensor cartridge (Agilent Technologies, Palo Alto, CA, USA) and incubated in a non-CO2 incubator overnight at 37° C. […] In addition, the XF24 microplate was placed in the Agilent seahorse XF24 (Agilent Technologies) instrument, and OCR was measured. Here, the measured values were compared with percentage values based on picomoles per minute (pM/min).

Setting [5] is: Comparative Example 1: canagliflozin 50 μM, FIG. 6a.
[6] abbreviates: Comparative Example 3: empagliflozin 75 μM, FIG. 8a.

The values below come from patent US20250049830A1, “PHARMACEUTICAL COMPOSITION FOR PREVENTING OR TREATING CANCER, COMPRISING SGLT-2 INHIBITOR AND GOSSYPOL” (HAIM BIO., LTD., priority 2019, published 2025).

SMILES strings stand for the structures. Entries after “also recorded” stand apart in the source; their conditions may differ.

For `Cc1ccc([C@@H]2O[C@H](CO)[C@@H](O)[C@H](O)[C@H]2O)cc1Cc1ccc(-c2ccc(F)cc2)s1` [canagliflozin], the “cancer therapeutic effect of co-administration compared to SGLT-2 inhibitor alone” value in experiment [1] is given as “more effective”; in experiment [2] it was “better effect”. Also, the “size of the tumor spheroid cells (cell photographs)” value (“size of the tumor spheroid cells” below) in the experiment on U87 tumor spheroids (setting [5]) is on record as “decreased”. Besides, the “size of the cells (cell photographs)” value in the experiment on U87 tumor spheroids is recorded as “decreased compared to that in the control group; also recorded: most significant reduction in the cell size”. Moreover, in experiment [3], the “synergistic effect when administered in combination with gossypol and phenformin” value was “highest synergistic effect”.
As to `[H]/N=C(/N)N/C(=N/[H])NCCc1ccccc1` [phenformin], the “size of the tumor spheroid cells” value in the experiment on U87 tumor spheroids (setting [5]) is on record as “decreased”; in the experiment on U87 tumor spheroids (Comparative Example 2: dapagliflozin 75 μM, FIG. 7a), “decreased”; in the experiment on U87 tumor spheroids (setting [6]), “decreased”.
As to `OC[C@H]1O[C@@H](c2ccc(Cl)c(Cc3ccc(O[C@H]4CCOC4)cc3)c2)[C@H](O)[C@@H](O)[C@@H]1O` [empagliflozin], in experiment [4], the oxygen consumption rate result was “also low”. The “size of the tumor spheroid cells” value in the experiment with U87 tumor spheroids (setting [6]) is reported as “decreased”. Besides, the “size of the cells (cell photographs)” value in the experiment on U87 tumor spheroids is reported as “decreased compared to that in the control group”.
